Where two headings read alike, the source gives them in different places.
Assays:
[1] = Test for metabolic stability, liver microsomes; settings: for Slope (−k): rat liver microsomes
Protocol: The assay was performed with liver microsomes of rats.
The incubation solution (180 μl) consists of 90 μl of a microsomal suspension of 0.33 mg/ml protein in 100 mM phosphate buffer, pH 7.4, with 90 μl NADP-regenerating system (NADP: 1 mM, glucose-6-phosphate 5 mM, glucose-6-phosphate dehydrogenase: 5 U/ml, MgCl2 5 mM).
The reaction is started by adding 20 μl of the compound to be tested in 20% ACN to the microsome/buffer mixture preincubated at 37° C. After 0, 15, 30 and 60 minutes, 200 μl of sample solution is withdrawn and subjected to ACN precipitation. The isolation of the compounds is effected by adding 200 μl ACN that contains the internal standard (1 μM) to 200 μl of sample solution and calibration standard. After shaking for 10 s and centrifugation at 4000 g, an aliquot of the supernatant is subjected to LC-MS/MS. Two controls are included, namely a positive control with 7-ethoxycoumarin as a reference to verify the microsomal enzyme activity, and a negative control in which microsomes are used that were heated for 25 minutes without a regenerating system, in order to ensure that the loss of substance is actually due to metabolization.
The amount of compound in a sample is expressed as the percent fraction of the compound remaining as compared to time t=0 (100%). The percent fraction is plotted versus time.

CYP2D6 = CYP2D6 (Homo sapiens (Human), UniProt P10635); test: P450 inhibition assay CYP2D6; assay type: biochemical; settings: read-out: IC50 (mean ± SD) [μM] CYP2D6
17β-HSD2 = 17β-HSD2 (Homo sapiens (Human), UniProt P37059); test: 17β-HSD2 test assay (recombinant protein from Sf9 insect cells, 3H-estradiol/NAD+); assay type: biochemical; settings: for inhibition at 0.1 µM: read-out: HSD2 100 nM (% inhibition); for inhibition at 1 µM: read-out: HSD2 1 μM (% inhibition)
17β-HSD2, sequence (P37059 whole entry): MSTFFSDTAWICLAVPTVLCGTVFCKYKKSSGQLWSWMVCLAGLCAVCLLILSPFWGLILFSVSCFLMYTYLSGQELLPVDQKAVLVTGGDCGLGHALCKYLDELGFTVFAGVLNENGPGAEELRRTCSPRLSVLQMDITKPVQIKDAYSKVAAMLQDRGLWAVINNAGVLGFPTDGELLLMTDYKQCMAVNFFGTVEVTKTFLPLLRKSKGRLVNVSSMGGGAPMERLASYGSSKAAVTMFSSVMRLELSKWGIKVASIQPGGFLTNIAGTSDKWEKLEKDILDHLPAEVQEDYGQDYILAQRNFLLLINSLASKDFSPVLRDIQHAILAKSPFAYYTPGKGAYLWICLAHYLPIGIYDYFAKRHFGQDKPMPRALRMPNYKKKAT
Protocol: Recombinant protein obtained from Sf9 insect cells (0.1 μg/ml) is incubated with 20 mM KH2PO4, pH 7.4, 30 nM ^3H-estradiol and 1 mM NAD+ for 30 min at RT in the presence of the potential inhibitor in a concentration of 1 μM or 100 nM. The stock solutions of the compounds are prepared in DMSO so that the final concentration of DMSO in the sample is 1%. After the prescribed incubation time, the reaction is quenched by adding trichloroacetic acid (10% final concentration). The samples are centrifuged in microtitration plates at 400 rpm for 10 min, and the supernatants are charged on a reversed-phase HPLC equipped with a Waters Symmetrie C18 column and
Waters Sentry Guard column. The isocratic HPLC run is performed at RT with a flow rate of 1 ml/min and acetonitrile/water 48:52 as the eluent. The radioactivity was measured by means of a Packard Flow Scintillation Analyzer. The percent inhibition was calculated by means of the formulas stated above.

[2] = In vivo pharmacokinetics (rat), cassette dosing method; settings: cassette dosing perorally 10 mg/kg, male Wistar rats; for AUC(0-t) / Tmax / AUC(0-inf): rat, plasma, po; for AUC(0-inf): extrapolated to ∞
Source text: Labrasol/water 1/1). The plasma profiles were established by means of LC-MS/MS.

estrogen receptor β = estrogen receptor β (Homo sapiens (Human), UniProt Q92731); test: Estrogen receptor binding assay, ERβ
estrogen receptor β, sequence (Q92731 whole entry): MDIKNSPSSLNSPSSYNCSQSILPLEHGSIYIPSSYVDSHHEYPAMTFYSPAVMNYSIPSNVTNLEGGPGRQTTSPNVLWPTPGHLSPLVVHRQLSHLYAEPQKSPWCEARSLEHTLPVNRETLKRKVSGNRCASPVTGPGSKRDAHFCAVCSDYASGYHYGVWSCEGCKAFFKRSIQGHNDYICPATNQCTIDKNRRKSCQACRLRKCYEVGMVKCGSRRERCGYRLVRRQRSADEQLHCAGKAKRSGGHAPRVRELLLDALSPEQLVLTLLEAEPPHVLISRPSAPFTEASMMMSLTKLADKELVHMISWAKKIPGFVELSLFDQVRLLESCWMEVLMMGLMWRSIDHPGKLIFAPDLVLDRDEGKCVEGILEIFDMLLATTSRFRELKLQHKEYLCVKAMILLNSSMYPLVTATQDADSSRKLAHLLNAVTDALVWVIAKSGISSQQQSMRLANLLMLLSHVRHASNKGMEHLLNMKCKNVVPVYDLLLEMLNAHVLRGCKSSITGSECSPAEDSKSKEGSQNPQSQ

CaCo-2 cells = test: CaCo-2 assay (transport experiments); assay type: in vitro ADME; settings: for Permeability: class in words; for final basolateral concentration [μM ± SD]: initial donor concentration 50 μM
Protocol: (§1) Four reference compounds (atenolol, testosterone, ketoprofene and erythromycin) were employed in each assay for evaluating the transport properties of the CaCo-2 cells. The initial concentration of the compounds in the donor compartment was 50 μM (in buffer with 1% ethanol or DMSO). […] For glycoprotein P (P-gp) studies, bidirectional experiments were performed. The absorptive and secretory permeabilities (Papp(a-b) and Papp(b-a)) were determined. Thus, erythromycin was used as a substrate, and verapamil was used as an inhibitor of P-gp. Each experiment was performed in triplicate. The integrity of the monolayer was determined by means of TEER (transepithelial electric resistance) and the permeability for each assay was determined using Lucifer Yellow. All samples of the CaCo-2 transport experiments were analyzed by means of LC/MS/MS after dilution with buffer (1:1 with 2% acetic acid).

[3] = CaCo-2 assay (transport experiments); assay type: in vitro ADME; settings: human, Caco-2; initial donor concentration 50 μM
Protocol: as §1

17β-HSD1 = 17β-HSD1 (Homo sapiens (Human), UniProt P14061); test: 17β-HSD1 test assay (recombinant protein from Sf9 insect cells, 3H-estrone/NADPH); assay type: biochemical; settings: for inhibition at 1 µM: read-out: HSD 1 μM (% inhibition of HSD1); for inhibition at 0.1 µM: read-out: HSD1 100 nM (% inhibition)
17β-HSD1, sequence (P14061 whole entry): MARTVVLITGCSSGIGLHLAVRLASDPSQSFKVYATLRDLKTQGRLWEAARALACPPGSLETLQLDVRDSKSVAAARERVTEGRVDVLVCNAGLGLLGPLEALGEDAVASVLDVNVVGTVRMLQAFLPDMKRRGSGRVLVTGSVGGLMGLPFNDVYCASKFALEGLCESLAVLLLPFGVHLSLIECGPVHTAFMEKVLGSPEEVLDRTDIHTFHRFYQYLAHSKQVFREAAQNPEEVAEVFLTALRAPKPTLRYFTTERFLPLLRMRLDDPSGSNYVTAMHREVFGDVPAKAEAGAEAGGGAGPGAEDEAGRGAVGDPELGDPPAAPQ
Protocol: Recombinant protein obtained from Sf9 insect cells (0.1 μg/ml) is incubated with 20 mM KH2PO4, pH 7.4, 30 nM ^3H-estrone and 1 mM NADPH for 30 min at RT in the presence of the potential inhibitor in a concentration of 1 μM or 100 nM. The stock solutions of the compounds are prepared in DMSO (dimethylsulfoxide) so that the final concentration of DMSO in the sample is 1%. After the prescribed incubation time, the reaction is quenched by adding trichloroacetic acid (10% final concentration). The samples are centrifuged in microtitration plates at 400 rpm for 10 min, and the supernatants are charged on a reversed-phase HPLC equipped with a Waters Symmetrie C18 column and Waters Sentry Guard column. The isocratic HPLC run is performed at RT with a flow rate of 1 ml/min and acetonitrile/water 48:52 as the eluent. The radioactivity was measured by means of a Packard Flow Scintillation Analyzer. […]

estrogen receptor α = estrogen receptor α (Homo sapiens (Human), UniProt P03372); test: Estrogen receptor binding assay, ERα
estrogen receptor α, sequence (P03372 whole entry): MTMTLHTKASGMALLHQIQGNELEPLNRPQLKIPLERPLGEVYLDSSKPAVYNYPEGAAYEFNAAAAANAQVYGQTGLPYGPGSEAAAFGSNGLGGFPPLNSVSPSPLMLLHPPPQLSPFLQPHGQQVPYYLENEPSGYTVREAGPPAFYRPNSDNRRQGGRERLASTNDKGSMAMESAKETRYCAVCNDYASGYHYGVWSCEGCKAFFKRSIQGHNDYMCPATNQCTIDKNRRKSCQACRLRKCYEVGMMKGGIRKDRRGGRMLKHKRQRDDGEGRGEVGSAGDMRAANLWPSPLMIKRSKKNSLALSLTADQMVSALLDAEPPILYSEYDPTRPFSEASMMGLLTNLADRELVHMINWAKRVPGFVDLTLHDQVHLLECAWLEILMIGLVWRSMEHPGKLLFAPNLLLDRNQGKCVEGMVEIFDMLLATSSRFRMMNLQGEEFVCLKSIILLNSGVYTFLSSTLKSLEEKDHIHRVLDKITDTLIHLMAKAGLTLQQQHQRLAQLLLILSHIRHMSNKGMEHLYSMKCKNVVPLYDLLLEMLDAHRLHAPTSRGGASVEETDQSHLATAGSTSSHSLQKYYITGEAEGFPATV

CYP2C9 = CYP2C9 (Homo sapiens (Human), UniProt P11712); test: P450 inhibition assay CYP2C9
CYP2C9, sequence (P11712 whole entry): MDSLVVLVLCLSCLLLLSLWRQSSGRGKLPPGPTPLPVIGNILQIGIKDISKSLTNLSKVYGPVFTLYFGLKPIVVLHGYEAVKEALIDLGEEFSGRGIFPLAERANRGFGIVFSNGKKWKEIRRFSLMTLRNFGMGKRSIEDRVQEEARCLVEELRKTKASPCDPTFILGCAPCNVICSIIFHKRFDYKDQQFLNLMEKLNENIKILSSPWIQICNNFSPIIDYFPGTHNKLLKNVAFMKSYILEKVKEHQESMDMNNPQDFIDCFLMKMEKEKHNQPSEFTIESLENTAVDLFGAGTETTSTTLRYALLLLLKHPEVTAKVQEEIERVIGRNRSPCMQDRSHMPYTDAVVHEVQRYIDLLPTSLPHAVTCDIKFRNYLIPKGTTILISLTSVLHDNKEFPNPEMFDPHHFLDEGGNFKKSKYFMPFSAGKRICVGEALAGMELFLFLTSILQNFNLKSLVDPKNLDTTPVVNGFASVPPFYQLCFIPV

CYP1A2 = CYP1A2 (Homo sapiens (Human), UniProt P05177); test: P450 inhibition assay CYP1A2
CYP1A2, sequence (P05177 whole entry): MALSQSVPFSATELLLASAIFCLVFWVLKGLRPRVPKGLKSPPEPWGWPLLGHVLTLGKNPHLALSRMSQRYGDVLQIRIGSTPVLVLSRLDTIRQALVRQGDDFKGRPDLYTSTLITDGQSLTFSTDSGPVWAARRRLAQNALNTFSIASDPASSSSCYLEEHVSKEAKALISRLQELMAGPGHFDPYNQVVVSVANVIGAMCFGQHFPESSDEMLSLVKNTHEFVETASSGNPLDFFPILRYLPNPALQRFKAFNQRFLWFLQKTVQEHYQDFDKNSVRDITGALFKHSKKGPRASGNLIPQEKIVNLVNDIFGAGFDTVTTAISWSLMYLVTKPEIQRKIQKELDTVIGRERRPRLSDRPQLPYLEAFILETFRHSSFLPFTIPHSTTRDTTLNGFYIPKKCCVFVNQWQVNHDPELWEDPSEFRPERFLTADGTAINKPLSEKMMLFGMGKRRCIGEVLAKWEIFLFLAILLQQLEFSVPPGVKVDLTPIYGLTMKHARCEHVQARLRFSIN

CYP2C19 = CYP2C19 (Homo sapiens (Human), UniProt P33261); test: P450 inhibition assay CYP2C19
CYP2C19, sequence (P33261 whole entry): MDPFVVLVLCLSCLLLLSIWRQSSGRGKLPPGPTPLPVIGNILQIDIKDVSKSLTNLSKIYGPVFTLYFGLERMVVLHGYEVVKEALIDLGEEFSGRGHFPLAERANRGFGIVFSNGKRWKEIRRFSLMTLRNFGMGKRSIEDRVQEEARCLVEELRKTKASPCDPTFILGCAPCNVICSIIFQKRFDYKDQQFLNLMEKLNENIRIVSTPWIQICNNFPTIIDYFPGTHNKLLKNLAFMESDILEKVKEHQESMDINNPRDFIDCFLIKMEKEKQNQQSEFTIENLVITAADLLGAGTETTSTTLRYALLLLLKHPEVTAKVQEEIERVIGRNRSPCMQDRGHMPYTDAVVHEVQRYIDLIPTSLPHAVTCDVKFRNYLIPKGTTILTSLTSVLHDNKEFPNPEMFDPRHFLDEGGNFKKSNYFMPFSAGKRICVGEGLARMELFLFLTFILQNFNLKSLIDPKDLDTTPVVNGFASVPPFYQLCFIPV

CYP3A4 = CYP3A4 (Homo sapiens (Human), UniProt P08684); test: P450 inhibition assay CYP3A4; assay type: biochemical; settings: read-out: IC50 (mean ± SD) [μM] CYP3A4
CYP3A4, sequence (P08684 whole entry): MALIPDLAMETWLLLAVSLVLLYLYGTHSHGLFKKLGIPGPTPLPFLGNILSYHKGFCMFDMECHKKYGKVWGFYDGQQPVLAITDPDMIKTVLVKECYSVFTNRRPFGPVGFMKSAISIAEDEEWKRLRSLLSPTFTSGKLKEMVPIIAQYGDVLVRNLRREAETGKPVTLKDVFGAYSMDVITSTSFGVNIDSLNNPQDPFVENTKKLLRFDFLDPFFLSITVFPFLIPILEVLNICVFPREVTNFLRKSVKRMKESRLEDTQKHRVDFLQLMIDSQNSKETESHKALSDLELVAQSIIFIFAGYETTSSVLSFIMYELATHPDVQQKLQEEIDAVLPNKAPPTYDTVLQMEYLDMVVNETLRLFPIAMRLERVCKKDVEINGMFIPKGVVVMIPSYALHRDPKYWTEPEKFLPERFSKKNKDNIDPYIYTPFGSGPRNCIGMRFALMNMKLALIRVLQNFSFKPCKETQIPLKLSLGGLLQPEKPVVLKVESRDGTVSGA

CYP2B6 = CYP2B6 (Homo sapiens (Human), UniProt P20813); test: P450 inhibition assay CYP2B6
CYP2B6, sequence (P20813 whole entry): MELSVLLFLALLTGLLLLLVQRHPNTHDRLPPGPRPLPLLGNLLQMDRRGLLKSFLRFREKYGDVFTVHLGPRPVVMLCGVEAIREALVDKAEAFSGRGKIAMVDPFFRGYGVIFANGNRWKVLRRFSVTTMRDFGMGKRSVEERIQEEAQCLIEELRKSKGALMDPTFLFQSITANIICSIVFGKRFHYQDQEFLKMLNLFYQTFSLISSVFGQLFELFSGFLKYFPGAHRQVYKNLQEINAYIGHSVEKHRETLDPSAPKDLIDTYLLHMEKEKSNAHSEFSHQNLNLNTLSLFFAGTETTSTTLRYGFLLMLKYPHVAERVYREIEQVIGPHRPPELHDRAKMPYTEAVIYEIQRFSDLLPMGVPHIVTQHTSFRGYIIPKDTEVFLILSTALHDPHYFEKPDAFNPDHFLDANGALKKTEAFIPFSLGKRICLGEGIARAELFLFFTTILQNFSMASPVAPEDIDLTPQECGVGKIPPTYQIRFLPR

[4] = In vivo pharmacokinetics (rat), single oral administration; settings: single oral administration 50 mg/kg, male Wistar rats
[5] = relative binding affinity (estradiol: 100%)

CYP2D6, sequence (P10635 whole entry): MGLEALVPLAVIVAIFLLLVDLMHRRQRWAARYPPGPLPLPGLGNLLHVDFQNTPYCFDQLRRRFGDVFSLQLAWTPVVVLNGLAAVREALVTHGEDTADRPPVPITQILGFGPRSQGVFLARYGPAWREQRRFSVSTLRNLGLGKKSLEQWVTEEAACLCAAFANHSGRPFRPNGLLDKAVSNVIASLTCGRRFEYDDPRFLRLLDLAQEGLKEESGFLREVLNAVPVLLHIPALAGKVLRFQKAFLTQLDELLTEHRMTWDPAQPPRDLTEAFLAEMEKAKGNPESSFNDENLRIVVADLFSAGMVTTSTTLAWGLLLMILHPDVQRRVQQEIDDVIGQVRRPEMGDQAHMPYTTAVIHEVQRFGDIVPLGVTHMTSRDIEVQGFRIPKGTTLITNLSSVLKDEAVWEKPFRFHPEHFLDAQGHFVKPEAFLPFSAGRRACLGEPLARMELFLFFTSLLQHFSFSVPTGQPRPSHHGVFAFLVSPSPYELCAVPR

inhibition at 0.1 µM (17β-HSD2; inhibitor 100 nM) [%] | inhibition at 1 µM (17β-HSD2; inhibitor 1 μM) [%] | inhibition at 1 µM (17β-HSD1; inhibitor 1 μM) [%] | inhibition at 0.1 µM (17β-HSD1; inhibitor 100 nM) [%] | Structure (SMILES) | T1/2z [2] [h] | tz [2] [h] | AUC(0-t) [2] [ng·h/mL] | Tmax [2] [h] | AUC(0-inf) [2] [ng·h/mL] | RBA ERβ [%] (estrogen receptor β; [5]) | RBA ERα [%] (estrogen receptor α; [5]) | other results
< 10 | 16.3 | 80.2 | 40 | O=C(Nc1ccccc1)c1c(O)ccc2cc(-c3cccc(O)c3)ccc12 [Compound 42, 2-Hydroxy-6-(3-hydroxyphenyl)-N-phenyl-1-naphthamide] |  |  |  |  |  |  |  | mass balance [% ± SD] (CaCo-2 cells): 7.6 ± 0.5%; Permeability (CaCo-2 cells): moderate; final basolateral concentration [μM ± SD] (CaCo-2 cells): 1.1 ± 0.1 µM; Papp at 180 min, 50 μM [3]: 1.5 ×10⁻⁶ cm/s
19 | 69 | 88.4 | 82.9 | Oc1cccc(-c2ccc3c(Br)c(O)ccc3c2)c1 [Compound 52, 1-Bromo-6-(3-hydroxyphenyl)naphthalene-2-ol] |  |  |  |  |  | 0.10 | 0.081 | 
 |  | 94 | 83 | N#Cc1cc(O)cc2ccc(-c3cccc(O)c3)cc12 [Compound 54, 3-Hydroxy-7-(3-hydroxyphenyl)-1-naphthonitrile] |  |  |  |  |  |  |  | IC50 (CYP2C9): 0.224 ± 0.002 µM; IC50 (CYP1A2): 0.259 ± 0.01 µM; IC50 (CYP2C19): 1.21 ± 0.19 µM; IC50 (CYP3A4): 2.05 ± 0.18 µM; mass balance [% ± SD] (CaCo-2 cells): 30.5 ± 3.1%; Permeability (CaCo-2 cells): moderate; final basolateral concentration [μM ± SD] (CaCo-2 cells): 3.7 ± 0.3 µM; Papp at 180 min, 50 μM [3]: 4.4 ×10⁻⁶ cm/s
22.1 | 77.2 | 89.4 | 76.2 | Oc1cccc(-c2ccc3c(-c4ccccc4)c(O)ccc3c2)c1 [Compound 56, 6-(3-Hydroxyphenyl)-1-phenyl-2-naphthol] | 5.9 | 24.0 | 11700 | 4 | 12700 | 0.044 | 0.055 | 
24.1 | 63.6 | 81.5 | 35.1 | CC(=O)Nc1cccc(-c2c(O)ccc3cc(-c4cccc(O)c4)ccc23)c1 [Compound 66, N-(3-(2-Hydroxy-6-(3-hydroxyphenyl)naphthalene-1-yl)phenyl)acetamide] |  |  |  |  |  |  |  | 
24.2 | 68 | 62.3 | < 10 | O=C(O)CCC(=O)Nc1ccc(-c2c(O)ccc3cc(-c4cccc(O)c4)ccc23)cc1 [Compound 67, 4-(4-(2-Hydroxy-6-(3-hydroxyphenyl)naphthalene-1-yl)phenylamino)-4-oxobutanoic acid] |  |  |  |  |  |  |  | 
< 10 | 39.1 | 87.3 | 74.1 | Nc1cccc(-c2c(O)ccc3cc(-c4cccc(O)c4)ccc23)c1 [Compound 68, 1-(3-Aminophenyl)-6-(3-hydroxyphenyl)naphthalene-2-ol] | 2.4 | 24.0 | 539 | 2 | 540 |  |  | AUC(0-t) ([4]; rat, plasma): 337 ng·h/mL; Tmax ([4]; rat, plasma): 2 h; AUC(0-inf) ([4]; rat, plasma, extrapolated to ∞): 337 ng·h/mL; t1/2z [4]: 1.59 h; tz [4]: 8.0 h; mass balance [% ± SD] (CaCo-2 cells): 52.7 ± 3.6%; Permeability (CaCo-2 cells): high; final basolateral concentration [μM ± SD] (CaCo-2 cells): 13.9 ± 0.8 µM; Papp at 180 min, 50 μM [3]: 16.4 ×10⁻⁶ cm/s
24 | 71 | 96.3 | 87 | O=S(=O)(Nc1nccs1)c1cccc(-c2c(O)ccc3cc(-c4cccc(O)c4)ccc23)c1 [Compound 69, 3-(2-Hydroxy-6-(3-hydroxyphenyl)naphthalene-1-yl)-N-(thiazol-2-yl)-benzenesulfonamide] |  |  |  |  |  | 0.010 | 0.015 | 

More lines, now with the values behind:

Structure (SMILES) | inhibition at 0.1 µM (17β-HSD2; inhibitor 100 nM) [%] | inhibition at 1 µM (17β-HSD2; inhibitor 1 μM) [%] | inhibition at 1 µM (17β-HSD1; inhibitor 1 μM) [%] | inhibition at 0.1 µM (17β-HSD1; inhibitor 100 nM) [%] | T1/2z [2] [h] | tz [2] [h] | AUC(0-t) [2] [ng·h/mL] | Tmax [2] [h] | AUC(0-inf) [2] [ng·h/mL] | RBA ERβ [%] (estrogen receptor β; [5]) | RBA ERα [%] (estrogen receptor α; [5]) | other results
Oc1cccc(-c2ccc3cc(O)ccc3c2)c1 [Compound 19, 6-(3-Hydroxyphenyl)-2-naphthol] | 12.4 | 16.6 | 94 | 91.4 | 4.4 | 24.0 | 29700 | 6 | 30700 | 0.80 | 0.23 | Slope (−k) [1]: −0.055; half-life ([1]; rat, microsomes, pH 7.4): 0.21 h; microsomal CLint ([1]; rat, microsomes, pH 7.4): 367 µL/min/mg; IC50 (CYP2D6): 32.6 ± 0.72 µM; mass balance [% ± SD] (CaCo-2 cells): 37.5 ± 3.0%; Permeability (CaCo-2 cells): moderate; final basolateral concentration [μM ± SD] (CaCo-2 cells): 6.5 ± 0.2 µM; Papp at 180 min, 50 μM [3]: 8.9 ×10⁻⁶ cm/s
Oc1cccc(-c2ccc3c(-c4cccc(O)c4)c(O)ccc3c2)c1 [Compound 57, 1,6-Bis(3-hydroxyphenyl)naphthalene-2-ol] |  |  | 92.6 | 82.9 | 0.9 | 10.0 | 10700 | 6 | 10700 | 0.020 | 0.0013 | inhibition at 0.1 µM (17β-HSD2): < 10%; inhibition at 1 µM (17β-HSD2): 40.1%
Oc1cccc(-c2ccc3c(-c4ccoc4)c(O)ccc3c2)c1 [Compound 58, 1-(Furan-3-yl)-6-(3-hydroxyphenyl)naphthalene-2-ol] | 60.6 | 92.3 |  |  |  |  |  |  |  |  |  | RBA ERβ [%] (estrogen receptor β): 0.024%; inhibition at 1 µM (17β-HSD1): 89.1%; inhibition at 0.1 µM (17β-HSD1): 83%; RBA ERα [%] (estrogen receptor α): 0.022%
Oc1cccc(-c2ccc3c(-c4ccncc4)c(O)ccc3c2)c1 [Compound 60, 6-(3-Hydroxyphenyl)-1-(pyridin-4-yl)naphthalene-2-ol] | 12.2 | 48.5 |  |  |  |  |  |  |  | 0.003 | 0.0068 | inhibition at 1 µM (17β-HSD1): 85.9%; inhibition at 0.1 µM (17β-HSD1): 74.4%
COc1ccc(-c2c(O)ccc3cc(-c4cccc(O)c4)ccc23)cn1 [Compound 62, 6-(3-Hydroxyphenyl)-1-(6-methoxypyridin-3-yl)naphthalene-2-ol] |  |  | 89.2 | 85.9 |  |  |  |  |  |  |  | IC50 (CYP2B6): 10.4 ± 0.14 µM; Slope (−k) [1]: −0.014; microsomal CLint ([1]; rat, liver microsomes, pH 7.4): 92.8 µL/min/mg; IC50 (CYP2D6): 40 ± 0.08 µM; IC50 (CYP3A4): 1.07 ± 0.05 µM; inhibition at 0.1 µM (17β-HSD2): 24.3%; inhibition at 1 µM (17β-HSD2): 67.2%
CS(=O)(=O)Nc1cccc(-c2c(O)ccc3cc(-c4cccc(O)c4)ccc23)c1 [Compound 64, N-(3-(2-Hydroxy-6-(3-hydroxyphenyl)naphthalene-1-yl)phenyl)methanesulfonamide] | 31.1 | 71.3 |  |  | 1.1 | 10.0 | 1330 | 2 | 1330 |  |  | RBA ERβ [%] (estrogen receptor β): 0.007%; inhibition at 1 µM (17β-HSD1): 90.8%; inhibition at 0.1 µM (17β-HSD1): 88.1%; RBA ERα [%] (estrogen receptor α): 0.012%
